# In paper PMC5903342 (Oxidative Medicine and Cellular Longevity, 2018):
# “Also recorded” adds a separate entry of the source.
# Legend:
# [1] = system: Salmonella enterica serovar typhimurium TA1535; experiment: Antimutagenicity assay (Salmonella/microsome), strain TA1535; assay type: cell-based; conditions: TA1535, cotreatment
# From the text: (§1) Salmonella enterica serovar typhimurium (S. typhimurium) strains TA100, TA1535, TA104, and TA102 from the authors' laboratory stock were used as described by Maron and Ames in the antimutagenicity assay.
# (§2) We carried out the coexposure protocol of the antimutagenicity assay to investigate the potential of the compound to protect against alkylation-mediated genetic mutation in S. typhimurium TA100, TA102, TA104, and TA1535 strains according to Ajith and Soja. The test proceeded both in the absence and presence of a metabolic activation system (4% S9 mix, Aroclor preinduced, from MOLTOX Inc., USA). DMSO 1% served as the negative control. […] The mixtures were incubated in a shaker at 37°C (preincubation) under light protection. After a total of 60 min of cotreatment, the mixtures were added to and mixed with 2 mL top agar containing 0.05 mmol/L L-histidine and D-biotin for the S. typhimurium strains. Each of these was then spread on a minimal glucose agar (1.5% agar, Vogel-Bonner medium E, containing 2% glucose) plate. After the top agar solidified, the plates were incubated at 37°C for 60–72 h. Each tester strain was assayed in triplicate and repeated at least twice, and the number of revertant colonies was counted for each tester strain and treatment group. The counts of revertant colonies were obtained to build a dose-response curve and calculate the percentage of reduction.
# [2] = system: Salmonella enterica serovar typhimurium TA102; experiment: Antimutagenicity assay (Salmonella/microsome), strain TA102; assay type: cell-based; conditions: TA102, cotreatment
# From the text: as §1, §2
# HepG2 cells = experiment: Cytoprotective assay of HepG2 cells (WST-1, coexposure with alkylating agent at LC50); assay type: cell-based, Human; conditions: 24 h coexposure with 20 μM MMS, AVA at 1.0 and 10.0 μM
# Procedure: After 24 h of coexposure, the culture medium was replaced by a 90 μL fresh culture medium and 10 μL WST-1 and incubated at 37°C and 5% CO2 for 2 h. The absorbance was then measured following the protocol as described before. The survival rates were determined in comparison to the negative control.
# [3] = +S9, CPA (150 μM), atorvastatin 20 μM
# [4] = +S9, CPA (150 μM), atorvastatin 100 μM
# [5] = +S9, CPA (150 μM), atorvastatin 200 μM
# [6] = +S9, CPA (150 μM), atorvastatin 1000 μM
# [7] = +S9, CPA (150 μM), atorvastatin 1000 μM, listed as Atorvastatin
# [8] = −S9, MMS (100 μM), atorvastatin 20 μM
# [9] = −S9, MMS (100 μM), atorvastatin 100 μM
# [10] = −S9, MMS (100 μM), atorvastatin 200 μM
# [11] = −S9, MMS (100 μM), atorvastatin 1000 μM
compound,measurement,setting,value
"CC(C)c1c(C(=O)Nc2ccccc2)c(-c2ccccc2)c(-c2ccc(F)cc2)n1CC[C@@H](O)C[C@@H](O)CC(=O)O [AVA, atorvastatin]",% reduction,[1]; [3],9.44%
same,His+ (revertant colonies),[1]; [3],53 ± 3
same,% reduction,[1]; [4],11.11%
same,His+ (revertant colonies),[1]; [4],52 ± 7
same,% reduction,[1]; [5],30.6%
same,His+ (revertant colonies),[1]; [5],45 ± 4
same,% reduction,"[1]; +S9, CPA (150 μM), atorvastatin 200 μM, listed as Atorvastatin",30.56^∗ %
same,% reduction,[1]; [6],42.2%
same,His+ (revertant colonies),[1]; [6],41 ± 8
same,% reduction,[1]; [7],42.22^∗ %
same,% reduction,[1]; [8],45.65^∗ %
same,His+ (revertant colonies),[1]; [8],50 ± 4
same,% reduction,[1]; [9],67.39^∗ %
same,His+ (revertant colonies),[1]; [9],40 ± 5
same,% reduction,[1]; [10],86.95^∗ %
same,His+ (revertant colonies),[1]; [10],31 ± 2
same,% reduction,[1]; [11],91.30^∗ %
same,His+ (revertant colonies),[1]; [11],29 ± 3
same,% reduction,[2]; [3],7.27%
same,His+ (revertant colonies),[2]; [3],566 ± 54
same,% reduction,[2]; [4],9.09%
same,His+ (revertant colonies),[2]; [4],560 ± 38
same,% reduction,[2]; [5],14.55%
same,His+ (revertant colonies),[2]; [5],543 ± 42
same,% reduction,[2]; [6],30%
same,His+ (revertant colonies),[2]; [6],496 ± 11
same,% reduction,[2]; [7],30.00^∗ %
same,% reduction,[2]; [8],16.03%
same,His+ (revertant colonies),[2]; [8],525 ± 32
same,% reduction,[2]; [9],19.08%
same,His+ (revertant colonies),[2]; [9],515 ± 64
same,% reduction,[2]; [10],29%
same,His+ (revertant colonies),[2]; [10],483 ± 91
same,% reduction,"[2]; −S9, MMS (100 μM), atorvastatin 200 μM, listed as Atorvastatin",29.01^∗ %
same,% reduction,[2]; [11],41.2%
same,His+ (revertant colonies),[2]; [11],443 ± 28
same,% reduction,"[2]; −S9, MMS (100 μM), atorvastatin 1000 μM, listed as Atorvastatin",41.22^∗ %
same,Cytoprotective effect (survival of HepG2 coexposed to MMS),HepG2 cells,significant protection; also recorded: significant cytoprotective effect
